Tests used:
[1] = target: T1, AKT3 Catalytic Domain (Homo sapiens, UniProt Q9Y243); experiment: Caliper mobility shift kinase activity assay; type: biochemical; conditions: AKT3 CD (122–479); read-out: ATP Km
T1 construct: AKT3 (Q9Y243); CD; His-tag; made in house; host or cells: Escherichia coli

[2] = target: T2, CDK2 + Cyclin A (Homo sapiens, UniProt P24941); experiment: Caliper mobility shift kinase activity assay; type: biochemical; conditions: CDK2 with CCNA2 (Cyclin A); read-out: ATP Km
T2 construct: CDK2 (P24941); 1–299; His-tag; made in house; host or cells: Escherichia coli

[3] = target: T3, CDK2 + Cyclin E (Homo sapiens, UniProt P24941); experiment: Caliper mobility shift kinase activity assay; type: biochemical; conditions: CDK2 with CCNE1 (Cyclin E); read-out: ATP Km
T3 construct: CDK2 (P24941); 1–299; His-tag; made in house; host or cells: Escherichia coli

[4] = target: T4, CHK2 Catalytic Domain (Homo sapiens, UniProt O96017); experiment: Caliper mobility shift kinase activity assay; type: biochemical; conditions: CHK2 CD; read-out: ATP Km
T4 construct: For all of them, we expressed and purified the catalytic domain separately; His-tag; made in house; host or cells: Escherichia coli
T4 sequence (O96017 220-486 limits assumed): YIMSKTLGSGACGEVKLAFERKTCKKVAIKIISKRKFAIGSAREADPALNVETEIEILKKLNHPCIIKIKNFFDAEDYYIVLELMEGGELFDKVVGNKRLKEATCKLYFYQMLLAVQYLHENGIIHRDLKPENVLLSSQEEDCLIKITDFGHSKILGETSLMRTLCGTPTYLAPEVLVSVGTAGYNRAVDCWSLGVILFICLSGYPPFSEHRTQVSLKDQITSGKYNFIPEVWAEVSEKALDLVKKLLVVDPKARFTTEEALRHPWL

[5] = target: T5, DMPK Catalytic Domain (Homo sapiens, UniProt Q09013); experiment: Caliper mobility shift kinase activity assay; type: biochemical; conditions: DMPK CD; read-out: ATP Km
T5 construct: For all of them, we expressed and purified the catalytic domain separately; His-tag; made in house; host or cells: Escherichia coli
T5 sequence (Q09013 71-339 limits assumed): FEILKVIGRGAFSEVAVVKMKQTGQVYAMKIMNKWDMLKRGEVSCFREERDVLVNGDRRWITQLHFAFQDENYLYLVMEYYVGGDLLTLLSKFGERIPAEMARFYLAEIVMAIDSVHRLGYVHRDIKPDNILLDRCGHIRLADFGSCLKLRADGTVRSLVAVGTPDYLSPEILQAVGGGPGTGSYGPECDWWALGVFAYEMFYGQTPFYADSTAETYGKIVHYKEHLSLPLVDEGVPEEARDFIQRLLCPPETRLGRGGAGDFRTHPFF

[6] = target: T6, FES Catalytic Domain (Homo sapiens, UniProt P07332); experiment: Caliper mobility shift kinase activity assay; type: biochemical; conditions: FES CD; read-out: ATP Km
T6 construct: For all of them, we expressed and purified the catalytic domain separately; His-tag; made in house; host or cells: Escherichia coli
T6 sequence (P07332 561-822 limits assumed): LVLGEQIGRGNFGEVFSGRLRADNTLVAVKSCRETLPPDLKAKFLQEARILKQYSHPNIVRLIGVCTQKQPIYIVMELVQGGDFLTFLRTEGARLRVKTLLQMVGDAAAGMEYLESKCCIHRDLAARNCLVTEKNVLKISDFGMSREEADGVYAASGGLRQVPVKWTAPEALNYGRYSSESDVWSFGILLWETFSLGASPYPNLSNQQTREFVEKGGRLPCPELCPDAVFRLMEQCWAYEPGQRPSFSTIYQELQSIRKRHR

[7] = target: T7, FES Catalytic Domain+SH2 (Homo sapiens, UniProt P07332); experiment: Caliper mobility shift kinase activity assay; type: biochemical; conditions: FES CD+SH2; read-out: ATP Km
T7 construct: for 8, we also made a longer version containing one or more additional domains; His-tag; made in house; host or cells: Escherichia coli
T7 sequence (P07332 448-822 limits assumed): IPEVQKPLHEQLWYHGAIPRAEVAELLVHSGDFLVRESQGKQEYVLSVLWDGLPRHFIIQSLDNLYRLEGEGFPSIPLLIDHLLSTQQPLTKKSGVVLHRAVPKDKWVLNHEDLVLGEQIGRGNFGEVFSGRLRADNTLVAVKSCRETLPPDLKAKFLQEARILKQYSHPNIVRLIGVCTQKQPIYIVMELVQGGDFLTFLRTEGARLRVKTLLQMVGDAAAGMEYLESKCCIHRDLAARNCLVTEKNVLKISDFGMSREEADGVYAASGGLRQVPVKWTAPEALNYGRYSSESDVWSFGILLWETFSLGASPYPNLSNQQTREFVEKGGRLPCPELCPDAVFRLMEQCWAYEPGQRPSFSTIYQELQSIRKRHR

[8] = target: T8, PAK4 Catalytic Domain (Homo sapiens, UniProt O96013); experiment: Caliper mobility shift kinase activity assay; type: biochemical; conditions: PAK4 CD; read-out: ATP Km
T8 construct: For all of them, we expressed and purified the catalytic domain separately; His-tag; made in house; host or cells: Escherichia coli
T8 sequence (O96013 321-572 limits assumed): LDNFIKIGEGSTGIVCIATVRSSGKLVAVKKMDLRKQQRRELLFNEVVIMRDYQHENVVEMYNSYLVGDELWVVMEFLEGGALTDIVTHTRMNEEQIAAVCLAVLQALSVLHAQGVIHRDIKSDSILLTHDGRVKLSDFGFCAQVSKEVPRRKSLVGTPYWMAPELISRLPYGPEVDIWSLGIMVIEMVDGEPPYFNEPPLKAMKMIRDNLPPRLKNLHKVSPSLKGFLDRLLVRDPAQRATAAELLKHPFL
Description: (§1) This ensures comparability of compound potency between the kinases. […] […].
(§2) […]. […] […].
(§3) IC50 was determined once for each compound-kinase combination.

[9] = target: T9, PAK4 Catalytic Domain+PBD (Homo sapiens, UniProt O96013); experiment: Caliper mobility shift kinase activity assay; type: biochemical; conditions: PAK4 CD+PBD; read-out: ATP Km
T9 construct: for 8, we also made a longer version containing one or more additional domains; His-tag; made in house; host or cells: Escherichia coli
T9 sequence (O96013 whole entry, the tested form may be a part): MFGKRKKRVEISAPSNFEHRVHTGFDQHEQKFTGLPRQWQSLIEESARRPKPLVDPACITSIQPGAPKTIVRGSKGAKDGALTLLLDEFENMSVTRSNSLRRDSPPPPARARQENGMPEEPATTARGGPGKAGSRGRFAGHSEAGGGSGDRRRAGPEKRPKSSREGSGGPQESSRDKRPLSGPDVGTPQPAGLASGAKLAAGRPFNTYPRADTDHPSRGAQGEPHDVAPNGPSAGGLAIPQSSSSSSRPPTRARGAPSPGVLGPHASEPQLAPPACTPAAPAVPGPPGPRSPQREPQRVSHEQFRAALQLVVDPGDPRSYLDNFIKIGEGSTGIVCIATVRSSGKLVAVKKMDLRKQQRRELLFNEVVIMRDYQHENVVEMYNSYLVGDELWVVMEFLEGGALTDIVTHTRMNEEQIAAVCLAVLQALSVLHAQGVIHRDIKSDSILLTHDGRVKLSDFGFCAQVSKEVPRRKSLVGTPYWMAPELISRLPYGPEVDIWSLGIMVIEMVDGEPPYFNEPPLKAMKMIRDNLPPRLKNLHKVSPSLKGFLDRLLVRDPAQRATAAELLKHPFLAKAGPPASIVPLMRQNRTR
Description: as §1, §2, §3

[10] = target: T10, PAK7 Catalytic Domain (Homo sapiens, UniProt Q9P286); experiment: Caliper mobility shift kinase activity assay; type: biochemical; conditions: PAK7 CD; read-out: ATP Km
T10 construct: For all of them, we expressed and purified the catalytic domain separately; His-tag; made in house; host or cells: Escherichia coli
T10 sequence (Q9P286 449-700 limits assumed): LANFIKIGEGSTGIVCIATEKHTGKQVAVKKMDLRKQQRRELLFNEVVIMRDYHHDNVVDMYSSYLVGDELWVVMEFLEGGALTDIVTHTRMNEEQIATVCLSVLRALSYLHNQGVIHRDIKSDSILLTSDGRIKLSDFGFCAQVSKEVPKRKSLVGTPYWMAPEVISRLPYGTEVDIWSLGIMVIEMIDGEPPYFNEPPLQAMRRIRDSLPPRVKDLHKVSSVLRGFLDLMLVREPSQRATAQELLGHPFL

[11] = target: T11, STK3 Catalytic Domain (Homo sapiens, UniProt Q13188); experiment: Caliper mobility shift kinase activity assay; type: biochemical; conditions: STK3 CD; read-out: ATP Km
T11 construct: For all of them, we expressed and purified the catalytic domain separately; His-tag; made in house; host or cells: Escherichia coli
T11 sequence (Q13188 27-278 limits assumed): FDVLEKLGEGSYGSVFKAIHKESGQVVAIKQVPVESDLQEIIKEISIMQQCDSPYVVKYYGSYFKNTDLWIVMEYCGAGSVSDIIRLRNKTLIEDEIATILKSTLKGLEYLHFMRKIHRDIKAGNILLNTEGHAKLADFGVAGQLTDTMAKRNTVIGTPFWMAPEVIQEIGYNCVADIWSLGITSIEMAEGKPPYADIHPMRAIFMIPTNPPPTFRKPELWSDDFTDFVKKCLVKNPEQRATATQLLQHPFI

[12] = target: T12, STK3 Catalytic domain+SARAH (Homo sapiens, UniProt Q13188); experiment: Caliper mobility shift kinase activity assay; type: biochemical; conditions: STK3 CD+SARAH; read-out: ATP Km
T12 construct: for 8, we also made a longer version containing one or more additional domains; His-tag; made in house; host or cells: Escherichia coli
T12 sequence (Q13188 1-491): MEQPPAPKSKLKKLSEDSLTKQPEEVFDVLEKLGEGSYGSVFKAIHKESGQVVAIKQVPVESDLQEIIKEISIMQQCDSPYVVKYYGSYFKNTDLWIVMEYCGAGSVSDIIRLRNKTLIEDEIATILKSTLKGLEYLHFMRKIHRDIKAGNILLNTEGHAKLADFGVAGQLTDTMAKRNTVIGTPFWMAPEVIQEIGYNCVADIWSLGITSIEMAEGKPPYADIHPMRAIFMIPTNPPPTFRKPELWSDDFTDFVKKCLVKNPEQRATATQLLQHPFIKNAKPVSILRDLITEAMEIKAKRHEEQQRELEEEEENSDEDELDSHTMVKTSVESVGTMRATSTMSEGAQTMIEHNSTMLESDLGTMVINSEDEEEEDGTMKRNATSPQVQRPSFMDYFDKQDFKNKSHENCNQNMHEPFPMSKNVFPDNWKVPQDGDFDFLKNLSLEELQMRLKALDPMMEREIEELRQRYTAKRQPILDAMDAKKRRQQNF

[13] = target: T13, SRC Catalytic Domain (Homo sapiens, UniProt P12931); conditions: read-out: ATP Km; SRC CD
[14] = target: T14, SRC Catalytic Domain+SH2+SH3 (Homo sapiens, UniProt P12931); conditions: read-out: ATP Km; SRC CD+SH2/3
[15] = target: T1, AKT3 Catalytic Domain; experiment: Differential Scanning Fluorimetry (DSF) Tm shift; type: binding; conditions: 2 µM protein, 10 µM inhibitor, average of 3 experiments, each in duplicate
[16] = target: T2, CDK2 + Cyclin A; experiment: Differential Scanning Fluorimetry (DSF) Tm shift; type: binding; conditions: CDK2 + Cyclin A; 2 µM protein, 10 µM inhibitor; average of 3 experiments, each in duplicate
[17] = target: T3, CDK2 + Cyclin E; experiment: Differential Scanning Fluorimetry (DSF) Tm shift; type: binding; conditions: CDK2 + Cyclin E; 2 µM protein, 10 µM inhibitor; average of 3 experiments, each in duplicate
[18] = target: T4, CHK2 Catalytic Domain; experiment: Differential Scanning Fluorimetry (DSF) Tm shift; type: binding; conditions: 2 µM protein, 10 µM inhibitor, average of 3 experiments, each in duplicate
[19] = target: T5, DMPK Catalytic Domain; experiment: Differential Scanning Fluorimetry (DSF) Tm shift; type: binding; conditions: 2 µM protein, 10 µM inhibitor, average of 3 experiments, each in duplicate
[20] = target: T15, FAK2 Catalytic Domain (Homo sapiens, UniProt Q14289); experiment: Differential Scanning Fluorimetry (DSF) Tm shift; type: binding; conditions: 2 µM protein, 10 µM inhibitor, average of 3 experiments, each in duplicate
T15 construct: For all of them, we expressed and purified the catalytic domain separately; His-tag; made in house; host or cells: Escherichia coli
T15 sequence (Q14289 425-683 limits assumed): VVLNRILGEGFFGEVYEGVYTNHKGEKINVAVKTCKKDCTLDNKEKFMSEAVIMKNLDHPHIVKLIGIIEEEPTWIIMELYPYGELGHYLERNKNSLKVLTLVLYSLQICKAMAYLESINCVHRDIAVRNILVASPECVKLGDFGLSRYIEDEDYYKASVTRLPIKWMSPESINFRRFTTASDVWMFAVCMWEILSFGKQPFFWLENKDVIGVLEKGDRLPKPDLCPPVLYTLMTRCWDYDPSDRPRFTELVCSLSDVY

[21] = target: T7, FES Catalytic Domain+SH2; experiment: Differential Scanning Fluorimetry (DSF) Tm shift; type: binding; conditions: 2 µM protein, 10 µM inhibitor, average of 3 experiments, each in duplicate
[22] = target: T6, FES Catalytic Domain; experiment: Differential Scanning Fluorimetry (DSF) Tm shift; type: binding; conditions: 2 µM protein, 10 µM inhibitor, average of 3 experiments, each in duplicate
[23] = target: T9, PAK4 Catalytic Domain+PBD; experiment: Differential Scanning Fluorimetry (DSF) Tm shift; type: binding; conditions: 2 µM protein, 10 µM inhibitor, average of 3 experiments, each in duplicate
[24] = target: T8, PAK4 Catalytic Domain; experiment: Differential Scanning Fluorimetry (DSF) Tm shift; type: binding; conditions: 2 µM protein, 10 µM inhibitor, average of 3 experiments, each in duplicate
[25] = target: T10, PAK7 Catalytic Domain; experiment: Differential Scanning Fluorimetry (DSF) Tm shift; type: binding; conditions: 2 µM protein, 10 µM inhibitor, average of 3 experiments, each in duplicate
[26] = target: T14, SRC Catalytic Domain+SH2+SH3; experiment: Differential Scanning Fluorimetry (DSF) Tm shift; type: binding; conditions: 2 µM protein, 10 µM inhibitor, average of 3 experiments, each in duplicate
[27] = target: T12, STK3 Catalytic domain+SARAH; experiment: Differential Scanning Fluorimetry (DSF) Tm shift; type: binding; conditions: 2 µM protein, 10 µM inhibitor, average of 3 experiments, each in duplicate
[28] = target: T11, STK3 Catalytic Domain; experiment: Differential Scanning Fluorimetry (DSF) Tm shift; type: binding; conditions: 2 µM protein, 10 µM inhibitor, average of 3 experiments, each in duplicate
[29] = target: T13, SRC Catalytic Domain; experiment: Differential Scanning Fluorimetry (DSF) Tm shift; type: binding; set-up: For all of them, we expressed and purified the catalytic domain separately; His-tag; made in house; host or cells: Escherichia coli; conditions: 2 µM protein, 10 µM inhibitor, average of 3 experiments, each in duplicate

T1 sequence (Q9Y243 122-479): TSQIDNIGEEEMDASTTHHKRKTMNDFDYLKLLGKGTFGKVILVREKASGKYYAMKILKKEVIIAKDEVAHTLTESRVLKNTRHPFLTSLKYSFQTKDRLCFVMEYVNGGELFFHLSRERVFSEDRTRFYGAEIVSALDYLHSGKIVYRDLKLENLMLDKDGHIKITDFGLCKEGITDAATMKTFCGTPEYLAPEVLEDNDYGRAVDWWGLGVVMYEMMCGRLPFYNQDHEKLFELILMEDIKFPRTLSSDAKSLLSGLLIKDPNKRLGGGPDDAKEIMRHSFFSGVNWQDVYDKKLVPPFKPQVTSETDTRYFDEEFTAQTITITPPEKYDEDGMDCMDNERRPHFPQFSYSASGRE

Melting temperature (Tm) shift [15] | Melting temperature (Tm) shift [16] | Melting temperature (Tm) shift [17] | Melting temperature (Tm) shift [18] | Melting temperature (Tm) shift [19] | Melting temperature (Tm) shift [20] | Melting temperature (Tm) shift [21] | Melting temperature (Tm) shift [22] | Melting temperature (Tm) shift [23] | Melting temperature (Tm) shift [24] | Melting temperature (Tm) shift [25] | Melting temperature (Tm) shift [26] | Melting temperature (Tm) shift [27] | Melting temperature (Tm) shift [28] | Melting temperature (Tm) shift [29] | Compound | further results
 |  |  |  |  |  |  |  |  |  |  |  |  |  |  | Nc1ncnc2c1ncn2[C@@H]1O[C@H](COP(=O)(O)OP(=O)(O)OP(=O)(O)O)[C@@H](O)[C@H]1O [ATP] | Km [1]: 564 ± 36 µM; Km [2]: 238 ± 12 µM; Km [3]: 145 ± 4 µM; Km [4]: 130 ± 13 µM; Km [5]: 470 ± 69 µM; Km [6]: 49 ± 11 µM; Km [7]: 53 ± 13 µM; Km [8]: 11 ± 1 µM; Km [9]: 11 ± 1 µM; Km [10]: 5 ± 0.4 µM; Km [11]: 140 ± 12 µM; Km [12]: 66 ± 2 µM; Km [13]: 134 ± 16 µM; Km [14]: 226 ± 33 µM
0.0 degrees Celcius | 2.9 degrees Celcius | 1.9 degrees Celcius | 8.7 degrees Celcius | 1.4 degrees Celcius | 2.6 degrees Celcius | 0.6 degrees Celcius | 3.0 degrees Celcius | 0.6 degrees Celcius | 0.7 degrees Celcius | 0.3 degrees Celcius | 0.3 degrees Celcius | 3.4 degrees Celcius | 2.3 degrees Celcius | 0.2 degrees Celcius | Chk2 Inhibitor | 
0.1 degrees Celcius | 0.0 degrees Celcius | 0.2 degrees Celcius | 0.2 degrees Celcius | 0.6 degrees Celcius | 0.3 degrees Celcius | 0.3 degrees Celcius | 0.1 degrees Celcius | 0.5 degrees Celcius | 0.4 degrees Celcius | 0.0 degrees Celcius | 0.0 degrees Celcius | 0.5 degrees Celcius | 0.0 degrees Celcius | 0.2 degrees Celcius | DNA-PK Inhibitor V | 
0.1 degrees Celcius | 0.2 degrees Celcius | 0.8 degrees Celcius | 5.9 degrees Celcius | 2.2 degrees Celcius | 0.3 degrees Celcius | 0.2 degrees Celcius | 0.2 degrees Celcius | 1.5 degrees Celcius | 0.7 degrees Celcius | 1.0 degrees Celcius | 0.1 degrees Celcius | 3.7 degrees Celcius | 1.1 degrees Celcius | 0.1 degrees Celcius | Wee1/Chk1 Inhibitor | 

From article PMC4051630, “A Comparison of Protein Kinases Inhibitor Screening Methods Using Both Enzymatic Activity and Binding Affinity Determination” (PLoS ONE, 2014)
